From US20070254891A1, “Crystalline forms of 4-(2-fluorophenyl)-6-methyl-2-(piperazin-1-yl)thieno[2,3-d]pyrimidine” (Dynogen Pharmaceuticals, Inc., priority 2006, published 2007)
Where “and” joins values, the source holds several entries; their conditions need not be identical. Equal values may be shown once.

Experiments:
[1] = tested on: irritation-induced reduction in bladder capacity; assay: Dilute Acetic Acid Model-Rats (filling cystometry); assay type: in vivo, rat; settings: intraduodenal
Description: The abdominal cavity was moistened with saline and closed by covering with a thin plastic sheet in order to maintain access to the bladder for emptying purposes. Fine silver or stainless steel wire electrodes were inserted into the external urethral sphincter (EUS) percutaneously for electromyography (EMG).
P<0.050 was considered significant.

[2] = tested on: reduction in bladder capacity seen following continuous infusion of dilute acetic acid; assay: Dilute Acetic Acid Model-Cats; assay type: in vivo, cat; settings: 3 point dose response, 3.0, 10.0 or 30 mg/ml dosed by body weight; P<0.0103; individual significance at 30 mg/kg
Procedure: Six alpha-chloralose anesthetized (50-100 mg/kg) normal female cats (2,5-3.5 kg; Harlan) were utilized in this study.
Female cats (2.5-3.5 kg; Harlan) had their food removed the night before the study. The following morning, the cats were anesthetized with isoflurane and prepped for surgery using aseptic technique. Polyethylene catheters were surgically placed to permit the measurement of bladder pressure, urethral pressure, arterial pressure, respiratory rate as well as for the delivery of drugs. Fine wire electrodes were implanted alongside the external urethral anal sphincter. […] During control cystometry, saline was slowly infused into the bladder (0.5-1.0 ml/min) for 1 hour. The control cystometry was followed by 0.5% acetic acid in saline for the duration of the experiment.
Data was analyzed using a non-parametric One-Way ANOVA (Friedman Test) with the post-hoc Dunn's multiple comparison t test. P<0.05 was considered significant.

[3] = tested on: acetic acid-induced colonic hypersensitivity; assay: Visceromotor response to colorectal distension in acetic acid-sensitized rats
Procedure: The visceromotor behavioral response to colorectal distension was measured by counting the number of abdominal contractions recorded by a strain gauge sutured onto the abdominal musculature as described in Gunter et al., Physiol. […] A 5 cm latex balloon catheter inserted via the anal canal into the colon was used for colorectal distensions. Constant pressure tonic distensions were performed in a graded manner (15, 30 or 60 mmHg) and were maintained for a period of 10 min and the numbers of abdominal muscle contractions were recorded to measure the level of colonic sensation. A 10 min recovery was allowed between distensions.
J. Physiol. […] In the present study, a low concentration of acetic acid (1.5 ml, 0.6%) was administered intracolonically to sensitize the colon without causing histological damage to the colonic mucosa as described in previous studies (Gunter et al., supra).
Injection volume was 0.2 mL using 100% propylene glycol as the vehicle. Three consecutive colorectal distensions at 15, 30 or 60 mmHg applied at 10-min intervals were recorded. Visceromotor responses were evaluated as the number of abdominal muscle contractions recorded during the 10-min periods of colorectal distension.
Adult male rats were used in the study. […] Specifically, rats were anesthetized with Isoflurane (2%) and were instrumented with a strain gauge force transducer for recording of abdominal muscle contractions. A latex balloon and catheter were inserted 11 cm into the colon. The animals were allowed a 30-min period to completely recover from the anesthesia and were then subjected to intracolonic infusion of acetic acid (1.5 mL, 0.6%). An additional 30-min period was allowed for sensitization of the colon. […] The protocol for colorectal distension was initiated 30-min post drug administration. After a basal reading of the number of abdominal contractions with the balloon inserted but not distended, three consecutive 10-min lasting colorectal distensions at 15, 30, and 60 mmHg were applied at 10-min intervals. Colorectal sensitivity was evaluated by counting the number of reflex abdominal contractions (i.e. the visceromotor response) observed within each distension period.
The visceromotor behavioral response to colorectal distension was measured by counting the number of abdominal contractions recorded by a strain gauge sutured onto the abdominal musculature as previously described Gunter et al., referenced above. Colorectal distensions were carried out utilizing a 5 cm latex balloon catheter inserted into the colon via the anal canal. Constant pressure tonic distensions were performed in a graded manner, i.e., the pressure was increased to the desired level of 15, 30, or 60 mmHg and then maintained for a period of 10 minutes during which the number of abdominal contractions were recorded to measure the level of colonic sensation. Ten minute recovery periods were allowed following each distension.

[4] = tested on: stress-induced accelerated colonic transit; assay: Water avoidance stress (WAS) model of increased colonic transit, fecal pellet output; assay type: in vivo, rat; settings: 3, 10 or 30 mg/kg i.p.
Description: At the end of the 1-hour stress period, the fecal pellets were counted and recorded. WAS causes an acceleration of colonic transit, which can be quantified by counting the number of fecal pellets, produced during the stress procedure. Rats were placed for 1-hour into a stress chamber onto a raised platform 7.5 cm×7.5 cm×9 cm (L×W×H) in the center of a stress chamber filled with room temperature water 8 cm in depth. The stress chamber was constructed from a rectangular plastic tub (40.2×60.2×31.2 cm). […] Ondansetron was supplied from APIN Chemicals LTD. […] MCI-225 was provided by Mitsubishi Pharma Corp. All drugs were dissolved in a vehicle of 100% propylene glycol (1,2-propanediol) by sonicating for a period of 10 minutes. Propylene glycol was obtained from Sigma Chemical Co. […] All drugs and the vehicle were administered as an i.p. injection in a volume of 0.2 mL.

[5] = tested on: small intestinal transit; assay: Small Intestinal Transit Rodent Model (charcoal meal); assay type: in vivo, rat; settings: for Small intestinal transit, Mean (% of total length): 15 min test period
Procedure: Following an overnight fast, rats were brought to the laboratory in their home cages and received an i.p. injection of one of the following: […] Control rats received no treatment. The treated rats were placed back in the home cages and after 30 min, were fed a 2 mL charcoal meal via an oral gavage. Small intestinal transit was measured following 15 min test-period. Each rat was placed briefly in a glass chamber with IsoFlo for anesthesia and sacrificed. The stomach and the small intestine were removed and the total length of the small intestine was measured. Transit was then measured as the distance that the charcoal meal had traveled along the small intestine and expressed as % of the total length. Animals were randomly assigned to experimental groups and experiments were performed as illustrated in Table 11. Small intestinal transit in rats was investigated by the passage of a charcoal meal along the small intestine during a defined time period (15-min). The animals were deprived of food for 12-16 hrs prior to the experiments. Rats were given a charcoal meal (a mixture of charcoal, gum arabic, and distilled water) as a 2 mL oral gavage and were sacrificed after a 15-min test period. The distance traveled by the charcoal meal was quantified as a percent of the small intestinal length, using the following equation: Transit (%)=cm traveled by meal/cm total small intestinal length×100 […]

[6] = tested on: retching and vomiting induced by cisplatin; assay: Cisplatin-induced emesis in the ferret; assay type: in vivo, ferret (Mustela putorius furo)
Procedure: Following administration of the cisplatin and either MCI-225, ondansetron or vehicle alone, the occurrence of retching and vomiting was monitored for a period of 6 hours. […] Vomiting was defined as the forceful oral expulsion of upper gastrointestinal contents. The latency of the retching or vomiting response and the number of episodes were recorded for each animal and summarized for each experimental group (Wright et al., Infect. […] Following one hour of acclimation to the observation cage, ferrets received an intraperitoneal (i.p.) injection of cisplatin (5 mg/kg in 5 mL) followed in about 2 minutes by i.p. injection of a single dose of MCI-225 or ondansetron (Rudd and Naylor, Eur. J. Pharmacol., 322: 79-82 (1997)). […] Each animal received a single-dose drug treatment. In addition, three animals received an initial dose (30 mg/kg i.p.) and a second MCI-225 injection (30 mg/kg i.p.) 180 minutes following the initial dose. […] All groups were randomized.

[7] = 30 mg/kg b.i.d, second dose 180 minutes after the first

4-(2-fluorophenyl)-6-methyl-2-(piperazin-1-yl)thieno[2,3-d]pyrimidine hydrochloride [MCI-225]
Bladder capacity versus AA/Veh 3 ([1]; 10 mg/kg, p<0.05 Dunn's test): significantly higher than AA/Veh 3 | Bladder capacity versus AA/Veh 3 ([1]; 30 mg/kg, p<0.001 Dunn's test): significantly higher than AA/Veh 3 | Bladder capacity ([1]; 3-30 mg/kg, n=8, p=0.0005 by Friedman test): dose-dependent increase | Bladder capacity following acetic acid irritation [2]: significant dose-dependent increase | Number of abdominal contractions in response to colorectal distension, compared to the vehicle ([3]; 10 mg/kg i.p., 15, 30 and 60 mmHg): significant decrease | Effect on visceromotor response relative to lower dose ([3]; 30 mg/kg i.p.): less effective | Animals in which the visceromotor response to CRD was eliminated ([3]; 30 mg/kg i.p., n=6): 50 % of the animals | WAS-induced fecal pellet output during 1 hour [4]: significant dose-dependent inhibition | Small intestinal transit, Mean (% of total length) ([5]; 3 mg/kg i.p.): 30.1% | Small intestinal transit, Mean (% of total length) ([5]; 10 mg/kg i.p., hydrochloride): 4.2±2.6% and 4.2% | Small intestinal transit, Mean (% of total length) ([5]; 30 mg/kg i.p.): 8.8% | Effect on small intestinal transit compared to the vehicle ([5]; 3, 10 or 30 mg/kg i.p.): dose-dependent inhibition | Latency ([6]; 1 mg/kg i.p.): 186 ± 35 min | Retches (360 min) ([6]; 1 mg/kg i.p.): 30.4 ± 9.1 | Total Events ([6]; 1 mg/kg i.p.): 32.9 ± 9.8 | Vomits (360 min) ([6]; 1 mg/kg i.p.): 2.5 ± 0.7 | Latency ([6]; 10 mg/kg i.p.): 192 ± 57 min | Retches (360 min) ([6]; 10 mg/kg i.p.): 22.9 ± 10.3 | Total Events ([6]; 10 mg/kg i.p.): 25.5 ± 11.1 | Vomits (360 min) ([6]; 10 mg/kg i.p.): 2.6 ± 1.0 | Latency [6, 7]: 360 ± 0 min | Retches (360 min) [6, 7]: 0.0 ± 0.0 | Total Events [6, 7]: 0.0 ± 0.0 | Vomits (360 min) [6, 7]: 0.0 ± 0.0 | Latency ([6]; 30 mg/kg i.p.): 287 ± 38 min | Retches (360 min) ([6]; 30 mg/kg i.p.): 3.3 ± 2.2 | Total Events ([6]; 30 mg/kg i.p.): 4.0 ± 2.6 | Vomits (360 min) ([6]; 30 mg/kg i.p.): 0.7 ± 0.5 | Retches and vomits induced by cisplatin ([6]; 1, 10 or 30 mg/kg i.p.): dose-dependent reduction | Emetic response ([6]; two doses of 30 mg/kg, b.i.d at a 180-min interval): eliminated
